The record followed here is ChEMBL document CHEMBL4033735, “A potent and selective natriuretic peptide receptor-3 blocker 11-mer peptide created by hybridization of musclin and atrial natriuretic peptide” (Bioorg Med Chem Lett, 2017).

The nature of series [1]: Stability in 10% C57BL/6J mouse serum/phosphate-buffered saline assessed as residual parent compound remaining at 1 mM after 60 mins at 37 degC by HPLC method. The following applies: 10% mouse serum in phosphate-buffered saline, read-out: Stability. In kind it is ADME, cell-free.
The target of series [2] is T1, Atrial natriuretic peptide receptor 3 (Homo sapiens, UniProt P17342).
T1 sequence (P17342 whole entry): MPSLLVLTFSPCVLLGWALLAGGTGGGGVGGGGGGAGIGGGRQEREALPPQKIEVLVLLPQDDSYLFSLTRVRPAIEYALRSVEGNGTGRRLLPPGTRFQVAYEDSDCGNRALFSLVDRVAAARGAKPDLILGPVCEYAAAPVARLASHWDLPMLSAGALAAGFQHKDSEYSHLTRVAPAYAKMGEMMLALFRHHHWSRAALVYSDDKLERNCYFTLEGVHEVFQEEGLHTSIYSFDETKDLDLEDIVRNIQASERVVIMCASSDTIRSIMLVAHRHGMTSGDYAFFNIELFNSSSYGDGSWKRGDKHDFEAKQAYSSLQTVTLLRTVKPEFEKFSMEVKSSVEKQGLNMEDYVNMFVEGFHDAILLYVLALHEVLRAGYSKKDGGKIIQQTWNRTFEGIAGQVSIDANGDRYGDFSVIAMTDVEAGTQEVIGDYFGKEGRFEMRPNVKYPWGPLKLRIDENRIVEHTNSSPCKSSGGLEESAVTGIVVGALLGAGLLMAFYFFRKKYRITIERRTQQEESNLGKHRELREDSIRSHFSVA
Put plainly: Displacement of [125I]-human ANP from His-tagged and Fc fragment containing human NPR-3 extracellular domain expressed in FreeStyle 293 cells incubated for 2 hrs by top count method. It is filed as cell-based. On the technique in general: Loss of bound radioactivity is the signal in a displacement assay; it reports binding, not function.

Series [3] can be described thus: Stability in 10% C57BL/6J mouse serum/phosphate-buffered saline assessed as residual parent compound remaining at 1 mM after 30 mins at 37 degC by HPLC method. It is filed as ADME, cell-free. The following applies: 10% mouse serum in phosphate-buffered saline, read-out: Stability.
The target of series [4] is T2, Atrial natriuretic peptide receptor 1 (Homo sapiens, UniProt P16066).
T2 sequence (P16066 whole entry): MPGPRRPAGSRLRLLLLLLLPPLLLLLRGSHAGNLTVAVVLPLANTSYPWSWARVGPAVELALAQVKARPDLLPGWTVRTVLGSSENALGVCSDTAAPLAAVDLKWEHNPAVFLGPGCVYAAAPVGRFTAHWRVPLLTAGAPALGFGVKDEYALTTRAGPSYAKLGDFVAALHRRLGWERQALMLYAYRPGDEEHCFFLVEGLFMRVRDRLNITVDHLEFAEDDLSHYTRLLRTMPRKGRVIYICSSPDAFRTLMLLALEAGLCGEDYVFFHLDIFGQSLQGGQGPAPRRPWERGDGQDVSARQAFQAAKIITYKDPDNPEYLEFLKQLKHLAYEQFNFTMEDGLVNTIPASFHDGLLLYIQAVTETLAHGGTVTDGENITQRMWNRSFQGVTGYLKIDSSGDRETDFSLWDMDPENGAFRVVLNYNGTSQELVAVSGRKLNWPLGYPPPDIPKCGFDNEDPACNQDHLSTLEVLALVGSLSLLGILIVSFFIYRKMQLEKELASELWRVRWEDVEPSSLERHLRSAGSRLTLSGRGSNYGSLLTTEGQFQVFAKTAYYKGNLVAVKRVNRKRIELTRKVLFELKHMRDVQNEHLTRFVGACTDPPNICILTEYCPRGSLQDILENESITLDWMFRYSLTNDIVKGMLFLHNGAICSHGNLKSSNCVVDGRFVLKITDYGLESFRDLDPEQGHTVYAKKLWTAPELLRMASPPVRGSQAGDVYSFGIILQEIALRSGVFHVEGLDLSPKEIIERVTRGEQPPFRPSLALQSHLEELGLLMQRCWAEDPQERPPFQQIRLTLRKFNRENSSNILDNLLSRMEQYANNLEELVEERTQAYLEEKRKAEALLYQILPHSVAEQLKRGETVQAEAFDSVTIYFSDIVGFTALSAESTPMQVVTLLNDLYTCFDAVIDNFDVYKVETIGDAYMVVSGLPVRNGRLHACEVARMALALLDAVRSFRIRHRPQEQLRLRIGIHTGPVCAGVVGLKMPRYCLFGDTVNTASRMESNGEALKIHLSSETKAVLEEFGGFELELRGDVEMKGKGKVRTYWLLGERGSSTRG
The series is described as follows: Displacement of [125I]-human ANP from human NPR-1 incubated for 2 hrs by top count method.

Square brackets hold non-standard residues; d marks the D form. Peptide text beside a SMILES is read from it. Cha = N[C@@H](CC1CCCCC1)C(=O)O

For orientation: IC50 means the concentration that inhibits the measured activity by half. On to `CC[C@H](C)[C@H](NC(=O)[C@H](CCCNC(=N)N)NC(=O)[C@H](CC(=O)O)NC(=O)[C@@H](NC(=O)[C@H](CCCNC(=N)N)NC(=O)CNC(=O)CNC(=O)[C@H](CC1CCCCC1)NC(=O)[C@H]1CCCN1C(=O)[C@H](CO)NC(=O)[C@H](N)Cc1ccccc1)[C@@H](C)CC)C(=O)NCC(N)=O`, for which, in series [1], the remaining at 1 h, 1000 µM was determined as 63%. The IC50 in series [2] is 0.13 nM; in series [4] it was above 1000 nM. Besides, the remaining at 0.5 h, 1000 µM in series [3] is 80%.

`CC[C@H](C)[C@H](NC(=O)[C@H](CCCNC(=N)N)NC(=O)[C@H](CC(=O)O)NC(=O)[C@@H](NC(=O)[C@H](CCCNC(=N)N)NC(=O)CNC(=O)CNC(=O)[C@H](CC1CCCCC1)NC(C)=O)[C@@H](C)CC)C(=O)NCC(N)=O` (Ac-[Cha]GGRIDRIG-NH2): the IC50 is 54 nM in series [2] and above 1000 nM in series [4].

Take `CC[C@H](C)[C@H](NC(=O)[C@H](CCCNC(=N)N)NC(=O)[C@H](CC(=O)O)NC(=O)[C@@H](NC(=O)[C@H](CCCNC(=N)N)NC(=O)CNC(=O)CNC(=O)[C@@H](N)CC1CCCCC1)[C@@H](C)CC)C(=O)NCC(N)=O` (H-[Cha]GGRIDRIG-NH2): the IC50 was 11 nM in series [2] and above 1000 nM in series [4].

Consider `CC[C@H](C)[C@H](NC(=O)[C@H](CCCNC(=N)N)NC(=O)[C@H](CC(=O)O)NC(=O)[C@@H](NC(=O)[C@H](CCCNC(=N)N)NC(=O)CNC(=O)CNC(=O)[C@H](CC1CCCCC1)NC(=O)CNC(=O)[C@H](CO)NC(=O)[C@H](Cc1ccccc1)NC(=O)[C@@H](N)CO)[C@@H](C)CC)C(=O)NCC(N)=O` (H-SFSG[Cha]GGRIDRIG-NH2), for which the IC50 in series [2] was 0.52 nM; in series [4], above 1000 nM.

`CC[C@H](C)[C@H](NC(=O)[C@H](CCCNC(=N)N)NC(=O)[C@H](CC(=O)O)NC(=O)[C@@H](NC(=O)[C@H](CCCNC(=N)N)NC(=O)CNC(=O)[C@@H](C)NC(=O)[C@H](CC1CCCCC1)NC(=O)CNC(=O)[C@H](CO)NC(=O)[C@H](N)Cc1ccccc1)[C@@H](C)CC)C(=O)NCC(N)=O`: the IC50 in series [2] was 0.36 nM; in series [4], above 1000 nM.

`CC[C@H](C)[C@H](NC(=O)[C@H](CCCNC(=N)N)NC(=O)[C@H](CC(=O)O)NC(=O)[C@@H](NC(=O)[C@H](CCCNC(=N)N)NC(=O)CNC(=O)CNC(=O)[C@H](CC1CCCCC1)NC(=O)[C@H](C)N)[C@@H](C)CC)C(=O)NCC(N)=O` (H-A[Cha]GGRIDRIG-NH2): the IC50 was 13 nM in series [2] and above 1000 nM in series [4].

`CC[C@H](C)[C@@H]1NC(=O)[C@H](CCCNC(=N)N)NC(=O)[C@H](CC(=O)O)NC(=O)[C@H](CCSC)NC(=O)[C@H](CCCNC(=N)N)NC(=O)CNC(=O)CNC(=O)[C@H](Cc2ccccc2)NC(=O)[C@@H](NC(=O)[C@H](CO)NC(=O)[C@H](CO)NC(=O)[C@H](CCCNC(=N)N)NC(=O)[C@H](CCCNC(=N)N)NC(=O)[C@H](CC(C)C)NC(=O)[C@@H](N)CO)CSSC[C@@H](C(=O)N[C@@H](CC(N)=O)C(=O)N[C@@H](CO)C(=O)N[C@@H](Cc2ccccc2)C(=O)N[C@@H](CCCNC(=N)N)C(=O)N[C@@H](Cc2ccc(O)cc2)C(=O)O)NCC(=O)NC(=O)[C@H](CC(C)C)NC(=O)CNC(=O)[C@H](CO)NC(=O)[C@H](CCC(N)=O)NC(=O)[C@H](C)NC(=O)CNC1=O`: the IC50 in series [2] was 0.058 nM; in series [4] it was 0.094 nM.

In series [2], `CC[C@H](C)[C@H](NC(=O)[C@H](CCCNC(=N)N)NC(=O)[C@H](CC(=O)O)NC(=O)[C@@H](NC(=O)[C@H](CCCNC(=N)N)NC(=O)CNC(=O)CNC(=O)[C@H](Cc1ccccc1)NC(=O)[C@H](CS)NC(=O)[C@H](CO)NC(=O)[C@H](CO)NC(=O)[C@@H](N)CCCNC(=N)N)[C@@H](C)CC)C(=O)NCC(=O)N[C@@H](C)C(=O)N[C@@H](CS)C(=O)O` (H-RSSCFGGRIDRIGAC-OH) came in with an IC50 of 0.65 nM.

As to `CC[C@H](C)[C@H](NC(=O)[C@H](CCCNC(=N)N)NC(=O)[C@H](CC(=O)O)NC(=O)[C@@H](NC(=O)[C@H](CCCNC(=N)N)NC(=O)CNC(=O)CNC(=O)[C@H](CC1CCCCC1)NC(=O)CNC(=O)[C@H](CO)NC(=O)[C@@H](Cc1ccccc1)NC(C)=O)[C@@H](C)CC)C(=O)NCC(N)=O`, the figures for the IC50 in series [2] and in series [4] were 0.93 nM and above 1000 nM, respectively.

Consider `CC[C@H](C)[C@H](NC(=O)[C@H](CCCNC(=N)N)NC(=O)[C@H](CC(=O)O)NC(=O)[C@@H](NC(=O)[C@H](CCCNC(=N)N)NC(=O)CNC(=O)CNC(=O)[C@H](CC1CCCCC1)NC(=O)[C@H](CS)NC(C)=O)[C@@H](C)CC)C(=O)NCC(N)=O` (Ac-C[Cha]GGRIDRIG-NH2), for which the values for the IC50 in series [2] and in series [4] were 35 nM and above 1000 nM, respectively.

Turning to `CC[C@H](C)[C@H](NC(=O)[C@H](CCCNC(=N)N)NC(=O)[C@H](CC(=O)O)NC(=O)[C@@H](NC(=O)[C@H](CCCNC(=N)N)NC(=O)CNC(=O)CNC(=O)[C@H](CC1CCCCC1)NC(=O)CN)[C@@H](C)CC)C(=O)NCC(N)=O` (H-G[Cha]GGRIDRIG-NH2), the values for the IC50 in series [2] and in series [4] were 13 nM and above 1000 nM, respectively.

As for `CC[C@H](C)[C@H](NC(=O)[C@H](CCCNC(=N)N)NC(=O)[C@H](CC(=O)O)NC(=O)[C@@H](NC(=O)[C@@H]1CCCN1C(=O)CNC(=O)CNC(=O)[C@H](CC1CCCCC1)NC(=O)CNC(=O)[C@H](CO)NC(=O)[C@H](N)Cc1ccccc1)[C@@H](C)CC)C(=O)NCC(N)=O`, the values for the half-maximal inhibitory concentration (IC50) in series [2] and in series [4] were 0.12 nM and above 1000 nM, respectively.

Regarding `CC[C@H](C)[C@H](NC(=O)[C@H](CCCNC(=N)N)NC(=O)[C@H](CC(=O)O)NC(=O)[C@@H](NC(=O)[C@H](CCCNC(=N)N)NC(=O)CNC(=O)CNC(=O)[C@H](CC1CCCCC1)NC(=O)CNC(=O)[C@H](CO)NC(=O)[C@H](CO)NC(=O)[C@@H](N)CCCNC(=N)N)[C@@H](C)CC)C(=O)NCC(N)=O` (H-RSSG[Cha]GGRIDRIG-NH2), the results for the IC50 in series [2] and in series [4] were 7.8 nM and above 1000 nM, respectively.

Consider `CC[C@H](C)[C@H](NC(=O)[C@H](CCCNC(=N)N)NC(=O)[C@H](CC(=O)O)NC(=O)[C@@H](NC(=O)[C@H](CCCNC(=N)N)NC(=O)CNC(=O)CNC(=O)[C@H](CC1CCCCC1)NC(=O)[C@@H](N)CO)[C@@H](C)CC)C(=O)NCC(N)=O` (H-S[Cha]GGRIDRIG-NH2), for which the IC50 in series [2] is 15 nM; in series [4], above 1000 nM.

For the molecule `CC[C@H](C)[C@H](NC(=O)[C@H](CCCNC(=N)N)NC(=O)[C@H](CC(=O)O)NC(=O)[C@@H](NC(=O)[C@H](CCCNC(=N)N)NC(=O)CNC(=O)CNC(=O)[C@H](CC1CCCCC1)NC(=O)[C@@H](N)CS)[C@@H](C)CC)C(=O)NCC(N)=O` (H-C[Cha]GGRIDRIG-NH2), the figures for the IC50 in series [2] and in series [4] were 1.5 nM and 120 nM, respectively.

On to `CC[C@H](C)[C@H](NC(=O)[C@H](CCCNC(=N)N)NC(=O)[C@H](CC(=O)O)NC(=O)[C@@H](NC(=O)[C@H](CCCNC(=N)N)NC(=O)CNC(=O)CNC(=O)[C@H](CC1CCCCC1)NC(=O)CNC(=O)[C@@H](N)CO)[C@@H](C)CC)C(=O)NCC(N)=O` (H-SG[Cha]GGRIDRIG-NH2), for which the values for the IC50 in series [2] and in series [4] were 22 nM and above 1000 nM, respectively.

Regarding `CC[C@H](C)[C@H](NC(=O)[C@H](CCCNC(=N)N)NC(=O)[C@H](CC(=O)O)NC(=O)[C@@H](NC(=O)[C@@H]1CCCN1C(=O)CNC(=O)[C@@H](C)NC(=O)[C@H](CC1CCCCC1)NC(=O)[C@H]1CCCN1C(=O)[C@H](CO)NC(=O)[C@@H](Cc1ccccc1)NC(C)=O)[C@@H](C)CC)C(=O)NCC(N)=O`, the values for the IC50 in series [2] and in series [4] were 0.19 nM and above 1000 nM, respectively.
